Data taken from US4421685A, “Process for producing an insulin” (Eli Lilly and Company, priority 1981, dated 1983).

Assays:
insulin receptor = insulin receptor (Homo sapiens, UniProt P06213); assay: insulin radioreceptor assay; type: binding
Text: (§1) Moreover, the product can be assayed for purity and activity by recognized methods such as polyacrylamide gel electrophoresis, amino acid analysis, insulin radioreceptorassay, insulin radioimmunoassay, high performance liquid chromatography (HPLC), ultraviolet spectrum, dansylation, rabbit blood glucose assay, and the like.
After acidification to pH 3.15 with glacial acetic acid, a portion of this solution was gel filtered on a 1.5×90 cm. column of Sephadex G-50 (Superfine) equilibrated and eluted with 1 M acetic acid at 4°-8° C. The [N-formyl-Gly^1 A] human insulin peak (elution volume 87-95 ml.) was pooled, aliquotted and lyophilized. This protein was judged to be quite clean by HPLC and amino acid analysis. The bioactivity of [N-formyl-Gly^1 -A] human insulin evaluated by radioreceptor assay was 17% relative to a human insulin standard.

rabbit blood glucose = assay: USP rabbit assay (rabbit blood glucose assay); type: in vivo; conditions: 144 rabbits; zinc insulin crystals redissolved in 0.01 N HCl
Text: as §1
The resulting human insulin preparation was judged to be quite pure by polyacrylamide gel electrophoresis (a single band), amino acid analysis, insulin radioreceptorassay, insulin radioimmunoassay, HPLC, dansylation and UV spectrum. […] (anhydrous).

insulin receptor, sequence (P06213 28-758 limits assumed): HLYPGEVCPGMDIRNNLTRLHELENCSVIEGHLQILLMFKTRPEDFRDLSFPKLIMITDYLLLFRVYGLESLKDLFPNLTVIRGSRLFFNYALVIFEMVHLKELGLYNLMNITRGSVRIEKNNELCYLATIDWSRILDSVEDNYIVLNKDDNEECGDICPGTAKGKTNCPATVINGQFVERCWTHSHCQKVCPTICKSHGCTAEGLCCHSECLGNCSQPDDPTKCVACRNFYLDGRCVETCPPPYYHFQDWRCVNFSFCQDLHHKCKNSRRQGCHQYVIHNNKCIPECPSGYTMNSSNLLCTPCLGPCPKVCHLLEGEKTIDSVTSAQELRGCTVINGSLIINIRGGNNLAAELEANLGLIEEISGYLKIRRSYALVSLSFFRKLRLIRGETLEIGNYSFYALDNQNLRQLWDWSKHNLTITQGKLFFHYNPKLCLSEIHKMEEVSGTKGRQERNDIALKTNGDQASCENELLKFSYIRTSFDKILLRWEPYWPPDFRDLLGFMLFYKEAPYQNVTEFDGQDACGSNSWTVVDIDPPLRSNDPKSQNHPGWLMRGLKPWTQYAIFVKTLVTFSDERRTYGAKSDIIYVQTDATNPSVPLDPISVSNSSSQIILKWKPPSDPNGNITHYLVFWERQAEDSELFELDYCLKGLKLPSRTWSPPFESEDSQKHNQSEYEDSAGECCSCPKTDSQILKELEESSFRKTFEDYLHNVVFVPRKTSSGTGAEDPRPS
insulin receptor, sequence (P06213 763-1382 partner limits assumed): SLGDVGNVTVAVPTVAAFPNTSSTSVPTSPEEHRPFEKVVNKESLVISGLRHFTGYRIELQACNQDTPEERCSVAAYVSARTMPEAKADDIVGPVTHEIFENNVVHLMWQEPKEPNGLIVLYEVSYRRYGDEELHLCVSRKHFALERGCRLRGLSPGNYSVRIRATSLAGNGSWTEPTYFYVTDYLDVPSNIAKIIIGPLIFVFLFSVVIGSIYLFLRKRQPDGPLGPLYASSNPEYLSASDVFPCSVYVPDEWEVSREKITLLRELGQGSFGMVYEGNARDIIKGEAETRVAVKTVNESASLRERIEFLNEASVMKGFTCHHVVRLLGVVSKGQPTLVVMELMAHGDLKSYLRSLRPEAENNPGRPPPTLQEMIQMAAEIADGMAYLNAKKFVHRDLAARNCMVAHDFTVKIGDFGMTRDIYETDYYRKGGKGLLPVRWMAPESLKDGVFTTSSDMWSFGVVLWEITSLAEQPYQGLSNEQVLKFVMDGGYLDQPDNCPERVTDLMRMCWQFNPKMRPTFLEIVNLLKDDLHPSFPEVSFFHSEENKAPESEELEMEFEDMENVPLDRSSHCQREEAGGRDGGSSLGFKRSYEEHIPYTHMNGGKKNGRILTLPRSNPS

Substance | bioactivity evaluated by radioreceptor assay relative to a human insulin standard (insulin receptor) [%] | potency, USP rabbit assay (rabbit blood glucose)
[N-formyl-Gly^1 -A] human insulin | 17 | 
human insulin |  | 26.3±1.8 units per mg. (anhydrous)
